Measured values: publication PMC9378673 (Nature Communications, 2022)
Values joined by “and” are separate entries in the source; they are usually repeats but may differ in a detail not shown here. Equal values may be shown once. Where a name gives a salt, the structure may show the parent alone. Read-outs that look alike come from different tables or passages of the source.

Legend:
IDH1 wt = molecular target: T1, IDH1 wt (Homo sapiens, UniProt O75874); assay: Steady-state kinetics, spectrophotometric NADPH absorption assay; format: biochemical
T1 construct: made in house; host or cells: E. coli BL21(DE3)plysS
Procedure: (§1) This assay was used to study steady-state kinetics and inhibition of reactions catalysed by IDH1 variants. The assay buffer was 100 mM Tris, 10 mM MgCl2, 0.2 mM dithiothreitol (DTT), 0.005%(v/v) Tween 20, and 0.1 mg mL^−1 bovine serum albumin (BSA) (pH 8.0). For inhibition assays, IDH1 variants were incubated with an inhibitor for 12 min before the reaction was initiated by substrate addition. The standard error was derived from curve fitting using GraphPad Prism v9. See figure legends for details on specific kinetic assays (Figs. 1–3; Supplementary Fig. 5; Supplementary Table 1). […]
(§2) spectrophotometric NADPH absorption assay. Conditions: 100 mM Tris, 10 mM MgCl2, 0.2 mM DTT, 0.005 %(v/v) Tween 20, and 0.1 mg/mL bovine serum albumin (BSA), pH 8.0. […] (a) Michaelis Menten […]
(§3) parameters for the oxidative decarboxylation of isocitrate. Errors: standard error of the mean (n = 3). (b) Michaelis Menten parameters for the reduction of 2-OG to 2-HG. Errors: standard error of the mean (n = 3).

IDH1 S280F = molecular target: T2, IDH1 S280F (Homo sapiens, UniProt O75874, S280F); assay: as above; format: biochemical
T2 construct: made in house; host or cells: E. coli BL21(DE3)plysS
Procedure: as §1, §2, §3

[1] = system: LN18 cells containing an empty vector (control, no IDH1); assay: 2-HG levels in cells by anion-exchange chromatography-MS; format: cell-based, human; parameters: unit not given here
[2] = oxidative decarboxylation of isocitrate; 1 nM enzyme; read-out: KM IDH1 wt
[3] = oxidative decarboxylation of isocitrate; 1 nM enzyme; read-out: KM IDH1 S280F
[4] = 5 µM inhibitor, 24 h, replicates
[5] = oxidative decarboxylation of isocitrate; 1 nM enzyme; varied substrate = label
[6] = reduction of 2-OG to 2-HG; […] enzyme; read-out: KM IDH1 S280F

T2 sequence (O75874 whole entry S280F): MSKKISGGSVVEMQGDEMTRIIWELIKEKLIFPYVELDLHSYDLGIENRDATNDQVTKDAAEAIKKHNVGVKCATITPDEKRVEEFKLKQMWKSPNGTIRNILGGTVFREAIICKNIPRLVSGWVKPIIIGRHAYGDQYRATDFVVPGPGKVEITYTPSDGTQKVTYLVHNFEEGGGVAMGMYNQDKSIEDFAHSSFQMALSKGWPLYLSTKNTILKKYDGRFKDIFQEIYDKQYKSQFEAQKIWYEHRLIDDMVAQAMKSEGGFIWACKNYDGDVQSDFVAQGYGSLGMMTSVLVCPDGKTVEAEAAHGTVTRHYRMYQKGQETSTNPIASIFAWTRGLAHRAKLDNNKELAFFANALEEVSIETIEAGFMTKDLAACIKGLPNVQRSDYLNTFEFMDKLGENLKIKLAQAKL
T1 sequence (O75874 whole entry): as the sequence (O75874 whole entry S280F) above, with F280S counted along it

Question: With `O=C(O)CC(C(=O)O)C(O)C(=O)O` (racemic) [DL-Isocitrate, DL-isocitric acid trisodium salt] as the compound, how does the Km (IDH1 wt; [2]) read?
Answer: 31 ± 3 µM

Question: And the Km (IDH1 S280F; [3])?
Answer: 12 ± 1 µM

Question: Which results are given for `O=C(O)CCC(=O)C(=O)O` [2-OG, 2-oxoglutarate]?
Answer: Km (IDH1 wt; read-out: KM IDH1 wt; reduction of 2-OG to 2-HG; […] enzyme): 792 ± 103 µM; Km (IDH1 S280F; read-out: KM IDH1 S280F; reduction of 2-OG to 2-HG; […] enzyme): 123 ± 4 µM

Question: How did the “2-HG levels, control (empty vector) LN18 cells” value (“2-HG levels, control” for short) [1, 4] turn out when `Cc1cn(C(=O)c2c(-c3c(Cl)cc(Cl)cc3Cl)noc2C(C)(C)F)c2cccc(/C=C/C(=O)O)c12` [DS-1001B] was run?
Answer: 51141.4 and 46980.7 and 53466.4 and 38288.1

Question: Which “2-HG levels, control” value [1, 4] does the source give for `C[C@H](Nc1ccc(C#N)n(C)c1=O)c1cc2cc(Cl)ccc2[nH]c1=O` [FT-2102] here?
Answer: 52804.5 and 64927 and 75933.5 and 34018.1

Question: Which “2-HG levels, control” value [1, 4] does the source give for `COc1c(C)cc(NC(=O)c2nn(Cc3ccc(F)cc3)c3c2CN(C(=O)c2ccc[nH]2)C[C@]3(C)C(N)=O)cc1C` [GSK864] here?
Answer: 43585.6 and 50898.8 and 60357.4 and 48169.7

Question: How did the “2-HG levels, control” value [1] turn out when `CC(Nc1nccc(N2C(=O)OCC2C(C)C)n1)c1ccc(CN2CCC(F)(F)CC2)cc1` (stereo not drawn) [IDH224] was run?
Answer: 89318.1 and 81458.8 and 60558.2 and 69273.4

Question: Which Km (IDH1 wt; [2]) does the source give for `[Cl-].[Cl-].[Mg+2]` [MgCl2] here?
Answer: 18 ± 2 µM

Question: And the “kcat IDH1 wt” value (IDH1 wt; [5])?
Answer: 37 ± 1 s⁻¹

Question: What about the Km (IDH1 S280F; [3]) of the same compound?
Answer: 24 ± 3 µM

Question: What about the “kcat IDH1 S280F” value (IDH1 S280F; [5]) of the same compound?
Answer: 33 ± 1 s⁻¹

Question: What about the “Decrease of KM for IDH1 S280F compared to IDH1 wt” value (IDH1 S280F; reduction of 2-OG to 2-HG) of the same compound?
Answer: 100 fold

Question: And the Km (IDH1 S280F; [6])?
Answer: 15 ± 4 µM

Question: `NC(=O)c1ccc[n+]([C@@H]2O[C@H](COP(=O)([O-])OP(=O)(O)OC[C@H]3O[C@@H](n4cnc5c(N)ncnc54)[C@H](OP(=O)(O)O)[C@@H]3O)[C@@H](O)[C@H]2O)c1` [NADP+] was tested. Which Km (IDH1 wt; [2]) did it give?
Answer: 10.1 ± 0.7 µM

Question: What about the “kcat IDH1 wt” value (IDH1 wt; [5]) of the same compound?
Answer: 43.2 ± 0.7 s⁻¹

Question: What about the Km (IDH1 S280F; [3]) of the same compound?
Answer: 7.4 ± 0.7 µM

Question: What about the “kcat IDH1 S280F” value (IDH1 S280F; [5]) of the same compound?
Answer: 31.3 ± 0.6 s⁻¹

Question: `NC(=O)C1=CN([C@@H]2O[C@H](COP(=O)(O)OP(=O)(O)OC[C@H]3O[C@@H](n4cnc5c(N)ncnc54)[C@H](OP(=O)(O)O)[C@@H]3O)[C@@H](O)[C@H]2O)C=CC1` [NADPH] was tested. Which Km (IDH1 wt; reduction of 2-OG to 2-HG; […] enzyme; read-out: KM IDH1 wt) did it give?
Answer: 7 ± 2 µM

Question: And the Km (IDH1 S280F; [6])?
Answer: 3 ± 0.3 µM

Question: For `N#Cc1ccnc(N2C(=O)CC[C@H]2C(=O)N(c2cncc(F)c2)[C@H](C(=O)NC2CC(F)(F)C2)c2ccccc2Cl)c1` [ivosidenib], which “2-HG levels, control” value ([1]; 5 µM inhibitor, 24 h, replicates, listed as AG120) is on record?
Answer: 57883 and 75917.7 and 85802.8 and 47477.2
